These are literature values, as cited in US10172810B2 (priority 2003, dated 2019).

For the data set the following is noted: pH 6.8.

SMILES strings stand for the structures.

As for `CN1CCCC1c1cccnc1` (stereo not shown) [nicotine], the “nicotine in the free base form” value is reported as “about 10%”.
